Laboratory results from US10960036B2, “Pharmaceutical composition for preventing and treating alpha herpes virus infection, containing, as active ingredient, Elaeocarpus sylvestris extract or fraction thereof” (priority 2016, dated 2021).

System: varicella-zoster virus (VZV)
Test: Expression of VZV replication-related genes (gB, ORF62) in infected MRC-5 cells, real-time PCR
Assay type: cell-based
Conditions: 50 μg/mL, 3 days after infection
Experimental: Viruses used to measure anti-replication activity were varicella-zoster virus (VZV), herpes simplex virus-1 (HSV-1) and herpes simplex virus-2 (HSV-2), which were obtained from the American Type Culture Collection (ATCC), and MRC-5 and Vero cells were also obtained from the ATCC and cultured. In a 5% CO2 incubator at 37° C., Vero cells were cultured in RPMI1640 medium containing 10% fetal bovine serum and 25 mM HEPES (2-[4-(2-hydroxyethyl) piperazin-1-yl] ethanesulfonic acid), and MRC-5 cells were cultured in MEM medium containing 10% fetal bovine serum and 25 mM HEPES.
Next, on 3 days after the infection, the cells were collected, and the inhibitory effect on viral replication was analyzed by real-time PCR using VZV glycoprotein B (gB) and open reading frame 62 (ORF62) DNAs.
MRC-5 cells were infected with VZV by culturing them with VZV-infected cells at a cell-to-cell ratio of 1:8, and treated with the Elaeocarpus sylvestris extract and its fractions (extract, hexane (Hx), dichloromethane (MC), ethyl acetate (EA), butanol (BuOH), and distilled water (DW) 50 μg/mL). On 3 days after the infection, the cells were collected, and the inhibitory effect against viral replication was analyzed by real-time PCR using VZV glycoprotein B (gB) and open reading frame 62 (ORF62) DNAs.
In order to analyze the VZV replication inhibitory effect and target of Elaeocarpus sylvestris extract components, MRC-5 cells were infected with VZV by culturing them with VZV-infected cells at a cell-to-cell ratio of 1:8, and treated with 50 μg/mL of each of Elaeocarpus sylvestris extract fractions (DS-1, DS-2, DS-3 and DS-4). On 3 days after the infection, the cells were collected, and the viral replication inhibitory effect of the fractions was analyzed by real-time PCR using VZV glycoprotein B (gB) and open reading frame 62 (ORF62) DNAs.

| Compound | expression of VZV glycoprotein B (gB) | expression of VZV open reading frame 62 (ORF62) |
| --- | --- | --- |
| COC(=O)c1cc(O)c(O)c(O)c1 (single isomer, unassigned) [DS-1, Methyl gallate] | decreased | decreased |
| COC(=O)c1cc(O)c(O)c(O)c1 (single isomer, unassigned) [DS-2, Methyl gallate] | decreased | decreased |
| O=C1O[C@H]2[C@@H]3OC(=O)c4cc(O)c(O)c(O)c4-c4c(cc(O)c(O)c4O)C(=O)OC[C@H]2O[C@@H](OC(=O)c2cc(O)c(O)c(O)c2)[C@@H]3OC(=O)c2cc(O)c(O)c3c2[C@@H]2C1=CC(=O)[C@](O)(O3)C2(O)O [DS-3, Geraniin] | decreased | decreased |
| Casuarictin [DS-4] | decreased | decreased |
